Data as given in ChEMBL document CHEMBL5352409, “Design, synthesis, and pharmacological evaluation of 2-(1-(1,3,4-thiadiazol-2-yl)piperidin-4-yl)ethan-1-ol analogs as novel glutaminase 1 inhibitors” (Eur J Med Chem, 2022).
Calls of active or inactive are those of the source. The rule behind the calls is not given here.

Legend:
A549 [1] = assay: Induction of cell cycle arrest in human A549 cells assessed as accumulation of cells at G2/M phase at 800 nM incubated for 48 hrs by propidium iodide staining based flow cytometry analysis (Rvb=23.88%); type: functional
HCT-116 [2] = assay: cells; settings: Homo sapiens
A549 [3] = assay: Induction of apoptosis in human A549 cells assessed as early apoptotic cells at 1 uM incubated for 48 hrs by annexin V-FITC and propidium iodide based flow cytometry analysis (Rvb =12.289%); type: functional
A549 [4] = assay: Induction of cell cycle arrest in human A549 cells assessed as accumulation of cells at S phase at 800 nM incubated for 48 hrs by propidium iodide staining based flow cytometry analysis (Rvb=14.51%); type: functional
A549 [5] = assay: Induction of cell cycle arrest in human A549 cells assessed as accumulation of cells at G2/M phase at 50 nM incubated for 48 hrs by propidium iodide staining based flow cytometry analysis (Rvb=23.88%); type: functional
HCT-116 [6] = assay: Induction of intracellular ROS production in human HCT-116 cells by DCFH-DA staining based fluorescence microscopic analysis; type: functional, cell-based; settings: dose 1-10 µM
A549 [7] = assay: Induction of apoptosis in human A549 cells assessed as late apoptotic cells at 1 uM incubated for 48 hrs by annexin V-FITC and propidium iodide based flow cytometry analysis (Rvb =9.696%); type: functional
A549 [8] = assay: Inhibition of colony formation in human A549 cells at 2 to 8 uM; type: functional, cell-based; settings: dose 2-8 µM
A549 [9] = assay: Induction of apoptosis in human A549 cells assessed as late apoptotic cells at 10 uM incubated for 48 hrs by annexin V-FITC and propidium iodide based flow cytometry analysis (Rvb =9.696%); type: functional
A549 [10] = assay: Induction of cell cycle arrest in human A549 cells assessed as accumulation of cells at G0/G1 phase at 100 nM incubated for 48 hrs by propidium iodide staining based flow cytometry analysis (Rvb=61.61%); type: functional
A549 [11] = assay: Antitumor activity against human A549 cells xenografted in mouse model assessed as tumor growth inhibition at 100 mg/kg once daily via oral gavage administered for 28 days relative to control; type: functional; design: scale not given: the % may be the effect or the level left; settings: time 28 day
A549 [12] = assay: Induction of cell cycle arrest in human A549 cells assessed as accumulation of cells at G2/M phase at 200 nM incubated for 48 hrs by propidium iodide staining based flow cytometry analysis (Rvb=23.88%); type: functional
A549 [13] = assay: Induction of cell cycle arrest in human A549 cells assessed as accumulation of cells at G2/M phase at 400 nM incubated for 48 hrs by propidium iodide staining based flow cytometry analysis (Rvb=23.88%); type: functional
A549 [14] = assay: Induction of cell cycle arrest in human A549 cells assessed as accumulation of cells at G0/G1 phase at 400 nM incubated for 48 hrs by propidium iodide staining based flow cytometry analysis (Rvb=61.61%); type: functional
A549 [15] = assay: Induction of cell cycle arrest in human A549 cells assessed as accumulation of cells at G0/G1 phase at 50 nM incubated for 48 hrs by propidium iodide staining based flow cytometry analysis (Rvb=61.61%); type: functional
[16] = Terminal half life in rat at 3 mg/kg, po; type: ADME, organism-based; settings: in vivo, read-out: beta t1/2 (converted)
HCT-116 [17] = assay: Antitumor activity against human HCT-116 cells xenografted in mouse model assessed as tumor growth inhibition at 100 mg/kg once daily via oral gavage administered for 28 days relative to control; type: functional; design: scale not given: the % may be the effect or the level left; settings: time 28 day
in vitro = settings: human, liver microsomes
A549 [18] = assay: Induction of intracellular ROS production in human A549 cells by DCFH-DA staining based fluorescence microscopic analysis; type: functional, cell-based; settings: dose 1-10 µM
A549 [19] = assay: Induction of apoptosis in human A549 cells assessed as late apoptotic cells at 5 uM incubated for 48 hrs by annexin V-FITC and propidium iodide based flow cytometry analysis (Rvb =9.696%); type: functional
[20] = human, microsomes
Description: Metabolic stability in human liver microsome assessed as intrinsic clearance

[21] = Oral bioavailability in rat at 3 mg/kg; type: ADME, organism-based; settings: in vivo
[22] = Clearance in rat at 3 mg/kg, po; type: ADME, organism-based; settings: in vivo
[23] = target: T1, Glutaminase kidney isoform, mitochondrial (Homo sapiens, UniProt O94925); assay: Inhibition of GLS1 (unknown origin)
T1 sequence (O94925 whole entry): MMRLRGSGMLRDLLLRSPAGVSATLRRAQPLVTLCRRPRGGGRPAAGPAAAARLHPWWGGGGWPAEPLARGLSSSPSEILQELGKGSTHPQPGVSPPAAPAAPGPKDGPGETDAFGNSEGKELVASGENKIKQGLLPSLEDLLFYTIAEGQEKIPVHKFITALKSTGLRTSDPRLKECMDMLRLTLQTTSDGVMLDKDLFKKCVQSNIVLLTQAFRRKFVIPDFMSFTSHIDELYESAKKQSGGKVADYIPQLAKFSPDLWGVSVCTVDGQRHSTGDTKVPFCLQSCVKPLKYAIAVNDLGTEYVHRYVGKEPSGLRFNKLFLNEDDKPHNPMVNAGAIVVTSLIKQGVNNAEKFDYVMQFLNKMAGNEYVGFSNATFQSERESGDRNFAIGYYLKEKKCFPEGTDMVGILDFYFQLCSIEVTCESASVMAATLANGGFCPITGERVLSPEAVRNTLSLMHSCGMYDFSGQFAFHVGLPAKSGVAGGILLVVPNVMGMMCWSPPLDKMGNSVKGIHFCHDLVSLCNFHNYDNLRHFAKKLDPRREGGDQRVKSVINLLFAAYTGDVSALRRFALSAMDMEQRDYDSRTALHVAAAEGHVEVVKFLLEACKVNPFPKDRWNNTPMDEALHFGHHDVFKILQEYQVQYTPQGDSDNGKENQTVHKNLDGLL

[24] = target: T2, Glutaminase liver isoform, mitochondrial (Homo sapiens, UniProt Q9UI32); assay: Inhibition of GLS2 (unknown origin)
T2 sequence (Q9UI32 whole entry): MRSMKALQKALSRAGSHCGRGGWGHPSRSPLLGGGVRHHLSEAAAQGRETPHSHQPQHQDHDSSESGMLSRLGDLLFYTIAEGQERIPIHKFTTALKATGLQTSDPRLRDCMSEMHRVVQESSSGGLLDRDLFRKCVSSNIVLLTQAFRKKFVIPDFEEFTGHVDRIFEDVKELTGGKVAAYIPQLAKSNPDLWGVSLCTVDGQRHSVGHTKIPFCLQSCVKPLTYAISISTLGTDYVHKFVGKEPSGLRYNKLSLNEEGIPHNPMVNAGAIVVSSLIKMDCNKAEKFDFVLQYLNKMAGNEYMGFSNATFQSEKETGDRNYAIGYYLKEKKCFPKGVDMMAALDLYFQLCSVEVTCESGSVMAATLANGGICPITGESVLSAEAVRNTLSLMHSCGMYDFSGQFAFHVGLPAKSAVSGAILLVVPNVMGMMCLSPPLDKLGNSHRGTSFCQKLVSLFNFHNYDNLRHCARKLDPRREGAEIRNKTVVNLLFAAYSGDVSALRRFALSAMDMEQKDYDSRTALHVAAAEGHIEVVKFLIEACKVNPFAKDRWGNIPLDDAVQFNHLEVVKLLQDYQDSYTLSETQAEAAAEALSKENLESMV

Q: What does the source list for CCCCCCN1CCC(CNC(=O)c2cccc(COCCC3CCN(c4nnc(NC(=O)Cc5ccccc5)s4)CC3)c2)CC1?
A: Activity (A549 [1]): 19.67%; IC50 (HCT-116 [2]): 420 nM; Activity (A549 [3]): 14.845%; Activity (A549 [4]): 11.77%; Activity (A549 [5]): 24.1%; Activity (HCT-116 [6]): Dose-Dependent Effect; Activity (A549 [7]): 7.018%; inhibition (A549 [8]): Active; Activity (A549 [9]): 68.08%; Activity (A549 [10]): 64.94%; Activity (A549 [11]): 40.9%; Activity (A549 [12]): 19.72%; Activity (A549 [13]): 18.77%; Activity (A549 [14]): 67.53%; Activity (A549 [15]): 62.73%; half-life [16]: 19.8 h; Activity (HCT-116 [17]): 42%; half-life (in vitro): > 2 h; Activity (A549 [18]): Dose-Dependent Effect; Activity (A549 [19]): 16.368%; CLH [20]: 15.6 g/mL/min; F [21]: 12.4%; CL [22]: 557 mL/min/kg; IC50 [23]: 68 nM; IC50 [24]: > 15000 nM
